Experimental data as given in patent US9127027B2, “Epoxyeicosatrienoic acid analogs and methods of making and using the same” (The Medical College of Wisconsin, Inc., priority 2011, dated 2015).
pEC50: −log10 of the molar value.

Legend:
Human recombinant sEH = Human recombinant sEH (Homo sapiens (Human), UniProt P34913); assay: Soluble epoxide hydrolase inhibition (PHOME fluorescent substrate); type: biochemical; details: Table 1 head prints μM (Table 2 prints nM for same numbers); read-out: sEHi IC50
Experimental: Compounds were tested for their ability to inhibit recombinant soluble epoxide hydrolase (sEH) protein. The assay utilizes (3-Phhenyl-oxiranyl)-acetic acid cyano-(6-methoxy-naphthalen-2-yl)-methyl ester (PHOME), a sensitive substrate for sEH that can be used to monitor the activity of both human and murine enzymes. […] Human recombinant sEH was incubated with substrate and compounds ranging in concentration from 0.1 to 1000 nM.

bovine coronary artery = assay: Vasorelaxant activity in bovine coronary artery rings precontracted with U-46619; type: cell-based; details: Bos taurus
Experimental: Vasorelaxant activity was measured in bovine coronary artery. Bovine hearts were obtained and the left anterior descending coronary artery was dissected and cleaned of connective tissue. Vessels of 1 mm diameter were cut into rings of 3 mm width as previously described (3, 27, 39). […] The vessels were suspended from a pair of stainless steel hooks in a 6-ml water-jacketed organ chamber. […] One hook was anchored to a steel rod and the other hook to a force transducer (model FT-03C; Grass Instruments, West Warwick, R.I.). Tension of the vessel was measured by an ETH-400 bridge amplifier, and the data were acquired with a MacLab 8e analog-to-digital converter and MacLab software version 3.5.6 (AD Instruments, Milford, Mass.) and stored on a Macintosh computer for subsequent data analysis.
Basal tension was set at the length-tension maximum of 3.5 g and equilibrated for 1.5 h. KCl (40 mM) was added to the chamber until reproducible maximal contractions were maintained. […] Cumulative additions of compounds were added to the chamber. Between concentration-response curves, the chambers were rinsed with fresh Krebs buffer, 40 mM KCl was administered to determine the maximum contraction, and the vessels were rinsed. Consecutive concentration-response curves were performed with 14,15-EET followed by a concentration-response curve to a compound. The experiment was always repeated with the order of the agonists reversed. […] The relaxation was plotted versus compound concentration and the EC50 determined utilizing statistical software.

Chain of Human recombinant sEH (P34913 whole entry): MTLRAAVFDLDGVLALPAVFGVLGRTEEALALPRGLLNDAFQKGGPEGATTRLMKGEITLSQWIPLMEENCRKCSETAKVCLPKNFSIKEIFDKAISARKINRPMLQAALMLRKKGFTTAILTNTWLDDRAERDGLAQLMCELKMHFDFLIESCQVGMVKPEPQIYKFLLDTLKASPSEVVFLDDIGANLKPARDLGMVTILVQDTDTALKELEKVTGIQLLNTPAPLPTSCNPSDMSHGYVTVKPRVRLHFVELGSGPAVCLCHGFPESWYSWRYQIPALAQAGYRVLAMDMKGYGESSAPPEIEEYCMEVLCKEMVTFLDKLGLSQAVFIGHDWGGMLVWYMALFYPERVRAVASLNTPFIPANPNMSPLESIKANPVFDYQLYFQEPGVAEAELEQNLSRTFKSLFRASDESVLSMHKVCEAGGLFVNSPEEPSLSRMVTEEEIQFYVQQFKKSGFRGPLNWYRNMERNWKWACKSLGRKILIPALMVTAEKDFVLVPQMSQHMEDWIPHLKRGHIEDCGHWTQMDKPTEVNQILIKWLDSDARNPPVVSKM

- melting point: 113.7 to 113.8 °C
- IC50 (Human recombinant sEH): 0.282 µM
- pEC50 (bovine coronary artery; bovine coronary artery, read-out: Vascular Relax. EC50): 5.48
Compound: CCCCCNC(=O)NCCCC/C=C\CCOc1cccc2sc(NC(C)=O)nc12 [Compound 33, N-(4-(8-(3-n-Pentylureido)oct-3(Z)-enyloxy)benzo[d]thiazol-2-yl)acetamide]
- activation at 10 µM (bovine coronary artery; 10 μM, 100% relaxation = basal pre-U-46619 tension, read-out: Vascular Relax. % (10 μM)): 73%
